Measured values published in patent US20230293517A1, “ANTAGONIST COMPOUNDS” (AdoRx Therapeutics Limited, priority 2020, published 2023).
pIC50, pKi: −log10 of the molar value.

Assays:
[1] = molecular target: human Adenosine A1 receptor (Homo sapiens (Human), UniProt P30542); experiment: Adenosine receptor TR-FRET binding assay (A1); details: inhibition of binding of 100 nM CA200645, CHO cell membranes
Procedure, shortened: (§1)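 Ki values come from Cheng–Prusoff conversion of IC50s for displacement of fluorescent antagonist CA200645 from terbium-labelled human adenosine receptors in CHO membranes. Tracer was 30 nM at A2b and 100 nM at the other three subtypes; incubation lasted 2 h at room temperature.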

[2] = molecular target: human Adenosine A2a receptor (Homo sapiens (Human), UniProt P29274); experiment: Adenosine receptor TR-FRET binding assay (A2a); details: inhibition of binding of 100 nM CA200645, CHO cell membranes
Procedure, shortened: as §1

[3] = molecular target: human Adenosine A2b receptor (Homo sapiens (Human), UniProt P29275); experiment: Adenosine receptor TR-FRET binding assay (A2b); details: TR-FRET, inhibition of binding of 30 nM CA200645, CHO cell membranes
Procedure, shortened: as §1

[4] = molecular target: human Adenosine A3 receptor (Homo sapiens (Human), UniProt P0DMS8); experiment: Adenosine receptor TR-FRET binding assay (A3); details: inhibition of binding of 100 nM CA200645, CHO cell membranes
Procedure, shortened: as §1

[5] = tested on: immature monocyte-derived dendritic cells (MoDC); experiment: MoDC pCREB assay; assay type: cell-based, human; details: Homo sapiens, Dendritic cell; pCREB in immature MoDC, 1 μM NECA, rolipram
Procedure: Monocytes are isolated from human whole blood using CD14 microbeads (Miltenyi Biotec 130-050-201) and differentiated to immature monocyte-derived dendritic cells (MoDC) by culture for 5 days in Mo-DC Differentiation Medium (Miltenyi Biotec 130-094-812). MoDCs are seeded into fresh medium into U bottomed 96 well culture plates and pre-incubated at 37° C. with serial dilutions of A2A/B antagonists for 15 min. At the same time the cells are co-incubated with the phosphodiesterase inhibitor rolipram (final concentration of 20 µM) to amplify the subsequent pCREB response. Adenosine receptor agonist NECA is then added at 1 μM final concentration, leading to an increase in CREB phosphorylation. Following a 45 min incubation at 37° C., the cells are fixed, permeabilized and stained with directly conjugated fluorescent antibodies to phospho-CREB (Alexa Fluor 488), CD209 (PerCP-Cy5.5) and CD86 (APC). Samples are analysed by FACS to measure fluorescence in corresponding channels, and also forward and Side scatter. The population of CD209+/CD86− low cells corresponding to immature dendritic cells is gated for analysis of pCREB levels.
Approximately 5% of the analysed cells are positive for detection of pCREB in the absence of agonist stimulation, representing the background signalling of all pathways upstream of CREB. Following NECA stimulation this is increased to ˜80% pCREB+ve, and this increase is essentially fully reversible by A2B or dual A2A/B antagonists.
IC50 is represented as the point of inflection of a sigmoidal curve

[6] = tested on: human PBMCs; experiment: CD3/CD28 stimulated IL-2 release NECA reversal assay in human PBMCs; assay type: cell-based; details: PBMC, 1 uM NECA, 24 hours, IL-2 in culture supernatant
Procedure, shortened: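 PBMCs from citrated healthy-donor blood plated at 50,000 cells/well on 1 ug/ml CD3 antibody with 1 ug/ml CD28 antibody, 1 uM NECA and 0.003-10 μM antagonist (final), 24 h at 37° C. Supernatant IL-2 measured by MSD immunoassay; % inhibition set against no-NECA control wells as 100%.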

[7] = tested on: CD8+T cells in human whole blood; experiment: Measurement of pCREB in CD8+T cells in human whole blood; assay type: cell-based; details: 3 μM NECA, rolipram
Procedure, shortened: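 Heparinised human whole blood pre-incubated 20 min at 37 °C with serially diluted A2a antagonists plus rolipram, then stimulated 60 min with 3 μM NECA (final). After fixation and red-cell lysis, white cells were permeabilized and stained for phospho-CREB and CD8; pCREB in CD8+ T cells measured by flow cytometry.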

Sequence of human Adenosine A1 receptor (P30542 whole entry): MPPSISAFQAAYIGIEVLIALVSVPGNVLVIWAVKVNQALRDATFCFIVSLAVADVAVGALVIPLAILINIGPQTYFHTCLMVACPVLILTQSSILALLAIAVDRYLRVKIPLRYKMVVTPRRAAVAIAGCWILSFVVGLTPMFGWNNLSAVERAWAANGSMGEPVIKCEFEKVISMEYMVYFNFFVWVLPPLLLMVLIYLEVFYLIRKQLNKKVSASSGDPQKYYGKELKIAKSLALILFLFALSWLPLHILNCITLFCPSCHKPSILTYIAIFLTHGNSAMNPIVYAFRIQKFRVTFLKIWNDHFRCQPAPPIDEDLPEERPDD
Sequence of human Adenosine A2b receptor (P29275 whole entry): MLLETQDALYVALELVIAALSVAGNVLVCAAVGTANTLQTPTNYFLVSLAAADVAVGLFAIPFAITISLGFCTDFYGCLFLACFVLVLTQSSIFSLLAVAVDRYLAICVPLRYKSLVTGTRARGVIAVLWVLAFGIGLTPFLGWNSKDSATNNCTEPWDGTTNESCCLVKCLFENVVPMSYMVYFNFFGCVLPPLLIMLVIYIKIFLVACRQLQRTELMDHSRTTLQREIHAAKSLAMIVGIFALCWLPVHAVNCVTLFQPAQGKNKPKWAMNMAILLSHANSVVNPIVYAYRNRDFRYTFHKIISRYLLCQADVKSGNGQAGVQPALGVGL
Sequence of human Adenosine A2a receptor (P29274 whole entry): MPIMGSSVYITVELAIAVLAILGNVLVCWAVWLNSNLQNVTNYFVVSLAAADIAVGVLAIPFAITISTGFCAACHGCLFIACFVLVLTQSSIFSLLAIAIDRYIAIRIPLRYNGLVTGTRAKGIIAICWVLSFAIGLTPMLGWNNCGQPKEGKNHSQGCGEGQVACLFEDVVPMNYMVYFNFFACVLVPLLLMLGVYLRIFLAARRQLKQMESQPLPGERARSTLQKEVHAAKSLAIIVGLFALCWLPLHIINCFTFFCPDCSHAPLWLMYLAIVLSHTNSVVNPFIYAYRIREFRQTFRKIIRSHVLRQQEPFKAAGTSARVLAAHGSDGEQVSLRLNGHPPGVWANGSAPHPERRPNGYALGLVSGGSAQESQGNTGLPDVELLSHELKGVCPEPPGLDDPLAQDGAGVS
Sequence of human Adenosine A3 receptor (P0DMS8 whole entry): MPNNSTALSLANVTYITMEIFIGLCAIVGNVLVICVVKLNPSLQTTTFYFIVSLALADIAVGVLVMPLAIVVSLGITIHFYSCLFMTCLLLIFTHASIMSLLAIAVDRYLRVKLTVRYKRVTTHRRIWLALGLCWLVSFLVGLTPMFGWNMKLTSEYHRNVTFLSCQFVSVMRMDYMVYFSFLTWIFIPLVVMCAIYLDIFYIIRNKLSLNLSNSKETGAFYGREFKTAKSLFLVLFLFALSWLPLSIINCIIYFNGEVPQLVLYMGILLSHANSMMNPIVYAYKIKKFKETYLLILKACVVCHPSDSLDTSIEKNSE

SMILES | pKi [1] | pKi [2] | pKi [3] | pKi [4] | pIC50 [5] | pIC50 [7] | pIC50 [6]
Cc1cc(-c2sc(NC(=O)N3CCC(S(N)(=O)=O)C3)nc2-c2cccc(C#N)c2)cc(C)n1 (centres unmarked) [Example 6.2, N-[4-(3-Cyanophenyl)-5-(2,6-dimethyl-4-pyridyl)thiazol-2-yl]-3-sulfamoyl-pyrrolidine-1-carboxamide] | 7.62 | 8.89 | 9.05 | 6.78 | 7.55 | – | –
Cc1cc(-c2sc(NC(=O)N3CC4(C3)CC(C)(O)C4)nc2-c2cccc(C#N)c2)cc(C)n1 [Example 6.44, N-[4-(3-Cyanophenyl)-5-(2,6-dimethyl-4-pyridyl)thiazol-2-yl]-6-hydroxy-6-methyl-2-azaspiro[3.3]heptane-2-carboxamide] | 6.82 | 9.40 | 8.62 | 6.52 | – | 7.00 | 8.51
Cc1cc(-c2sc(NC(=O)N3CCC4(CCC(=O)N4)CC3)nc2-c2cccc(C#N)c2)cc(C)n1 [Example 6.45, N-[4-(3-Cyanophenyl)-5-(2,6-dimethyl-4-pyridyl)thiazol-2-yl]-2-oxo-1,8-diazaspiro[4.5]decane-8-carboxamide] | 6.98 | 9.36 | 8.70 | 6.74 | – | 6.51 | 8.03
Cc1cc(-c2sc(NC(=O)N3CC[C@H](C(C)(C)O)C3)nc2-c2cccc(C#N)c2)cc(C)n1 [Example 6.48, (3S)-N-[4-(3-Cyanophenyl)-5-(2,6-dimethyl-4-pyridyl)thiazol-2-yl]-3-(1-hydroxy-1-methyl-ethyl)pyrrolidine-1-carboxamide] | 7.02 | 8.95 | 8.77 | 6.61 | – | 6.85 | 8.43
Cc1cc(-c2sc(NC(=O)N3CCC4(CCOC(=O)N4)CC3)nc2-c2cccc(C#N)c2)cc(C)n1 [Example 6.50, N-[4-(3-Cyanophenyl)-5-(2,6-dimethyl-4-pyridyl)thiazol-2-yl]-2-oxo-3-oxa-1,9-diazaspiro[5.5]undecane-9-carboxamide] | 6.87 | 8.79 | 8.47 | 6.33 | – | 6.72 | 8.44
Cc1cc(-c2sc(NC(=O)N3CC4(CCNC4=O)C3)nc2-c2cccc(C#N)c2)cc(C)n1 [Example 6.59, N-[4-(3-Cyanophenyl)-5-(2,6-dimethyl-4-pyridyl)thiazol-2-yl]-5-oxo-2,6-diazaspiro[3.4]octane-2-carboxamide] | 6.89 | 8.83 | 8.66 | 6.74 | – | 7.00 | 8.23
Cc1cc(-c2sc(NC(=O)N3CCN(C4COC4)CC3)nc2-c2cccc(C#N)c2)cc(C(F)(F)F)n1 [Example 6.61, N-[4-(3-Cyanophenyl)-5-[2-methyl-6-(trifluoromethyl)-4-pyridyl]thiazol-2-yl]-4-(oxetan-3-yl)piperazine-1-carboxamide] | 6.95 | 8.82 | 8.49 | 7.24 | – | 6.46 | 7.76
Cc1cc(-c2sc(NC(=O)N3CC(C#N)(CO)C3)nc2-c2cccc(C#N)c2)cc(C)n1 [Example 6.64, 3-Cyano-N-[4-(3-cyanophenyl)-5-(2,6-dimethyl-4-pyridyl)thiazol-2-yl]-3-(hydroxymethyl)azetidine-1-carboxamide] | 7.57 | 9.85 | 8.85 | 6.63 | – | 8.00 | 8.96
Cc1cc(-c2sc(NC(=O)N3CCN[C@H](C(C)(C)O)C3)nc2-c2cccc(C#N)c2)cc(C)n1 [Example 6.75, (3S)-N-[4-(3-Cyanophenyl)-5-(2,6-dimethyl-4-pyridyl)thiazol-2-yl]-3-(1-hydroxy-1-methyl-ethyl)piperazine-1-carboxamide] | 7.00 | 9.09 | 8.32 | 6.44 | – | 6.74 | 8.23
Cc1cc(-c2sc(NC(=O)N3CCOC[C@H]3CO)nc2-c2cccc(C#N)c2)cc(C)n1 [Example 6.88, (3R)-N-[4-(3-Cyanophenyl)-5-(2,6-dimethyl-4-pyridyl)thiazol-2-yl]-3-(hydroxymethyl)morpholine-4-carboxamide] | 7.19 | 8.72 | 8.10 | 6.41 | – | 6.32 | 8.11
Cc1cc(-c2sc(NC(=O)N3CCC4(CCC(=O)N4C)CC3)nc2-c2cccc(C#N)c2)cc(C)n1 [Example 6.94, N-[4-(3-Cyanophenyl)-5-(2,6-dimethyl-4-pyridyl)thiazol-2-yl]-1-methyl-2-oxo-1,8-diazaspiro[4.5]decane-8-carboxamide] | 6.39 | 8.25 | 7.95 | 6.14 | – | 6.72 | 7.98
Cc1cc(-c2sc(NC(=O)N3CCNCC3)nc2-c2cccc(C#N)c2)cc(C)n1 [Example 7, N-[4-(3-Cyanophenyl)-5-(2,6-dimethyl-4-pyridyl)thiazol-2-yl]piperazine-1-carboxamide] | 7.38 | 8.55 | 7.95 | 6.52 | – | 6.24 | 7.80
Cc1cc(-c2sc(NC(=O)N3CC[S+]([O-])CC3)nc2-c2cccc(C#N)c2)c(F)c(C)n1 [Example 10, N-[4-(3-Cyanophenyl)-5-(3-fluoro-2,6-dimethyl-4-pyridyl)thiazol-2-yl]-1-oxo-1,4-thiazinane-4-carboxamide] | 7.37 | 8.92 | 8.85 | 6.55 | – | 5.97 | 7.61
Cc1cc(-c2sc(NC(=O)N3CCS(=O)(=NC#N)CC3)nc2-c2cccc(C#N)c2)cc(C)n1 [Example 11, 1-Cyanoimino-N-[4-(3-cyanophenyl)-5-(2,6-dimethyl-4-pyridyl)thiazol-2-yl]-1-oxo-1,4-thiazinane-4-carboxamide] | 7.29 | 9.21 | 8.89 | 6.29 | – | 5.95 | 7.98
Cc1cc(-c2sc(NC(=O)N3CCC(C)(C#N)CC3)nc2-c2cccc(C#N)c2C)cc(C)n1 [Example 18, 4-Cyano-N-[4-(3-cyano-2-methyl-phenyl)-5-(2,6-dimethyl-4-pyridyl)thiazol-2-yl]-4-methyl-piperidine-1-carboxamide] | 6.61 | 9.41 | 8.47 | 6.07 | – | 6.39 | 8.14

Now from value to molecule, other results behind:

pKi [1] | pKi [2] | pKi [3] | pKi [4] | pIC50 [5] | pIC50 [7] | SMILES | pIC50 [6]
7.33 | 9.00 | 8.12 | 6.38 | – | 6.19 | Cc1cc(-c2sc(NC(=O)N3CCN[C@H](C)C3)nc2-c2cccc(C#N)c2)cc(C)n1 [Example 7.1, (3R)—N-[4-(3-Cyanophenyl)-5-(2,6-dimethyl-4-pyridyl)thiazol-2-yl]-3-methyl-piperazine-1-carboxamide] | 7.69
6.99 | 9.10 | 8.28 | 6.11 | – | 7.70 | Cc1cc(-c2sc(NC(=O)N3CC[C@@H](C(C)(C)O)C3)nc2-c2cccc(C#N)c2)cc(CO)n1 [Example 9.2] | 8.57
7.17 | 9.38 | 8.49 | 6.13 | – | 8.00 | Cc1cc(-c2sc(NC(=O)N3CCC(C#N)(CO)CC3)nc2-c2cccc(C#N)c2)cc(CO)n1 [Example 9.7] | 9.00
7.32 | 9.51 | 8.51 | 6.31 | – | 7.70 | COC1(C#N)CCN(C(=O)Nc2nc(-c3cccc(C#N)c3)c(-c3cc(C)nc(CO)c3)s2)CC1 [Example 9.9] | 8.89
7.66 | 9.54 | 8.66 | 6.59 | – | 6.92 | Cc1cc(-c2sc(NC(=O)N3CCS(=N)(=O)CC3)nc2-c2cccc(C#N)c2)cc(C(F)F)n1 [Example 16.1] | 8.17
